# Laboratory results from PubChem BioAssay AID1963858 (Molecular Pharmacology Branch, DTP, NCI, 2024).
# Test system: HOP-62 multicell spheroids with HUVEC/MSC, viability
# Experiment: Anticancer human tumor HOP-62 cell line growth inhibition [KRAS2];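 also: viability read after a week of compound exposure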;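 as to viability, T/C: 100% = DMSO vehicle-treated spheroids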
# Settings: for IC50: curve of first compound; for viability, T/C: stronger effect = lower value
# Summary of the method: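 KRAS-mutant tumor cells were grown as spheroids with HUVEC endothelial cells and human MSCs as stroma. Targeted agents were tested alone and with KRAS pathway inhibitors. Doses started at or near clinical Cmax, or 10 microM, descending half-log.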
# [1] = second compound 0.1 µM, first compound 0.000316 µM
# [2] = second compound 0.1 µM, first compound 0.001 µM
# [3] = second compound 0.1 µM, first compound 0.00316 µM
# [4] = second compound 0.1 µM, first compound 0.01 µM
# [5] = second compound 0.1 µM, first compound 0.0316 µM
# [6] = second compound 0.316 µM, first compound 0.000316 µM
# [7] = second compound 0.316 µM, first compound 0.001 µM
# [8] = second compound 0.316 µM, first compound 0.00316 µM
# [9] = second compound 0.316 µM, first compound 0.01 µM
# [10] = second compound 0.316 µM, first compound 0.0316 µM
# [11] = second compound 1 µM, first compound 0.000316 µM
# [12] = second compound 1 µM, first compound 0.001 µM
# [13] = second compound 1 µM, first compound 0.00316 µM
# [14] = second compound 1 µM, first compound 0.01 µM
# [15] = second compound 1 µM, first compound 0.0316 µM
# [16] = second compound 3.16 µM, first compound 0.000316 µM
# [17] = second compound 3.16 µM, first compound 0.001 µM
# [18] = second compound 3.16 µM, first compound 0.00316 µM
# [19] = second compound 3.16 µM, first compound 0.01 µM
# [20] = second compound 3.16 µM, first compound 0.0316 µM
# [21] = second compound 10 µM, first compound 0.000316 µM
# [22] = second compound 10 µM, first compound 0.001 µM
# [23] = second compound 10 µM, first compound 0.00316 µM
# [24] = second compound 10 µM, first compound 0.01 µM
# [25] = second compound 10 µM, first compound 0.0316 µM
# [26] = second compound 0.1 µM, first compound 0.1 µM
# [27] = second compound 0.316 µM, first compound 0.1 µM
# [28] = second compound 1 µM, first compound 0.1 µM
# [29] = second compound 3.16 µM, first compound 0.1 µM
# [30] = second compound 10 µM, first compound 0.1 µM
structure (smiles),measurement,setting,value
CC(=O)Nc1cccc(-n2c(=O)n(C3CC3)c(=O)c3c(Nc4ccc(I)cc4F)n(C)c(=O)c(C)c32)c1 + CNCc1ccccc1-c1csc(C(C)Nc2nc(C)nc3cc(OC)c(OC)cc23)c1,IC50,second compound 0.1 µM,4.3 nM
same,IC50,second compound 0.316 µM,2.84 nM
same,IC50,second compound 1 µM,2.32 nM
same,IC50,second compound 3.16 µM,< 0.1 nM
same,IC50,second compound 10 µM,< 0.1 nM
same,"viability, T/C","second compound 0.1 µM, first compound 0.0001 µM",104%
same,"viability, T/C",[1],97.2%
same,"viability, T/C",[2],81.6%
same,"viability, T/C",[3],60.1%
same,"viability, T/C",[4],28%
same,"viability, T/C",[5],27.4%
same,"viability, T/C","second compound 0.316 µM, first compound 0.0001 µM",106%
same,"viability, T/C",[6],97.4%
same,"viability, T/C",[7],77%
same,"viability, T/C",[8],48%
same,"viability, T/C",[9],30.1%
same,"viability, T/C",[10],29.9%
same,"viability, T/C","second compound 1 µM, first compound 0.0001 µM",91.2%
same,"viability, T/C",[11],92.8%
same,"viability, T/C",[12],74.1%
same,"viability, T/C",[13],41.4%
same,"viability, T/C",[14],26.8%
same,"viability, T/C",[15],25.7%
same,"viability, T/C","second compound 3.16 µM, first compound 0.0001 µM",7.87%
same,"viability, T/C",[16],0.24%
same,"viability, T/C",[17],3.22%
same,"viability, T/C",[18],0.35%
same,"viability, T/C",[19],0.07%
same,"viability, T/C",[20],0.24%
same,"viability, T/C","second compound 10 µM, first compound 0.0001 µM",0.13%
same,"viability, T/C",[21],0.15%
same,"viability, T/C",[22],2.8%
same,"viability, T/C",[23],0.12%
same,"viability, T/C",[24],2.27%
same,"viability, T/C",[25],0.31%
CC(C)NCC(C(=O)N1CCN(c2ncnc3c2C(C)CC3O)CC1)c1ccc(Cl)cc1 (stereo not given) + CNCc1ccccc1-c1csc(C(C)Nc2nc(C)nc3cc(OC)c(OC)cc23)c1,IC50,second compound 0.1 µM,844 nM
same,IC50,second compound 0.316 µM,608 nM
same,IC50,second compound 1 µM,212 nM
same,IC50,second compound 3.16 µM,< 31.6 nM
same,IC50,second compound 10 µM,< 31.6 nM
same,"viability, T/C",[5],119%
same,"viability, T/C",[26],83%
same,"viability, T/C","second compound 0.1 µM, first compound 0.316 µM",83.4%
same,"viability, T/C","second compound 0.1 µM, first compound 1 µM",45.9%
same,"viability, T/C","second compound 0.1 µM, first compound 3.16 µM",17.2%
same,"viability, T/C","second compound 0.1 µM, first compound 10 µM",10.3%
same,"viability, T/C",[10],89.5%
same,"viability, T/C",[27],78.5%
same,"viability, T/C","second compound 0.316 µM, first compound 0.316 µM",73.7%
same,"viability, T/C","second compound 0.316 µM, first compound 1 µM",32.4%
same,"viability, T/C","second compound 0.316 µM, first compound 3.16 µM",13.4%
same,"viability, T/C","second compound 0.316 µM, first compound 10 µM",10.2%
same,"viability, T/C",[15],81.3%
same,"viability, T/C",[28],74.8%
same,"viability, T/C","second compound 1 µM, first compound 0.316 µM",35.6%
same,"viability, T/C","second compound 1 µM, first compound 1 µM",23.4%
same,"viability, T/C","second compound 1 µM, first compound 3.16 µM",16.9%
same,"viability, T/C","second compound 1 µM, first compound 10 µM",9.94%
same,"viability, T/C",[20],0.41%
same,"viability, T/C",[29],0.71%
same,"viability, T/C","second compound 3.16 µM, first compound 0.316 µM",0.27%
same,"viability, T/C","second compound 3.16 µM, first compound 1 µM",0.47%
same,"viability, T/C","second compound 3.16 µM, first compound 3.16 µM",0.17%
same,"viability, T/C","second compound 3.16 µM, first compound 10 µM",0.26%
same,"viability, T/C",[25],0.24%
same,"viability, T/C",[30],0.26%
same,"viability, T/C","second compound 10 µM, first compound 0.316 µM",0.26%
same,"viability, T/C","second compound 10 µM, first compound 1 µM",0.25%
same,"viability, T/C","second compound 10 µM, first compound 3.16 µM",0.23%
same,"viability, T/C","second compound 10 µM, first compound 10 µM",0.33%
CC(C)n1nc(-c2ccc3oc(N)nc3c2)c2c(N)ncnc21 + CC1OCC2(CCN(c3cnc(Sc4ccnc(N)c4Cl)c(N)n3)CC2)C1N,IC50,second compound 0.1 µM,1.56 nM
same,IC50,second compound 0.316 µM,0.678 nM
same,IC50,second compound 1 µM,0.392 nM
same,IC50,second compound 3.16 µM,< 0.316 nM
same,IC50,second compound 10 µM,< 0.316 nM
same,"viability, T/C",[1],76.5%
same,"viability, T/C",[2],65.1%
same,"viability, T/C",[3],25.9%
same,"viability, T/C",[4],16.4%
same,"viability, T/C",[5],12.4%
same,"viability, T/C",[26],8.07%
same,"viability, T/C",[6],69.2%
same,"viability, T/C",[7],40.2%
same,"viability, T/C",[8],21.3%
same,"viability, T/C",[9],12%
same,"viability, T/C",[10],10%
same,"viability, T/C",[27],7.36%
same,"viability, T/C",[11],54.4%
same,"viability, T/C",[12],30.5%
same,"viability, T/C",[13],11.9%
same,"viability, T/C",[14],8.81%
same,"viability, T/C",[15],8.66%
same,"viability, T/C",[28],6.23%
same,"viability, T/C",[16],26.6%
same,"viability, T/C",[17],22.4%
same,"viability, T/C",[18],10.6%
same,"viability, T/C",[19],7.28%
same,"viability, T/C",[20],6.71%
same,"viability, T/C",[29],4.89%
same,"viability, T/C",[21],22.5%
same,"viability, T/C",[22],18.2%
same,"viability, T/C",[23],10.6%
same,"viability, T/C",[24],7%
same,"viability, T/C",[25],5.54%
same,"viability, T/C",[30],4.55%
